Like-named read-outs stand apart in the source and are kept apart here.
What was measured:
[1] = system: ERα in MDA-MB-231; experiment: Western blot of ERα induction, MDA-MB-231; type: cell-based, human; conditions: MDA-MB-231, 60 hours at […] and 13.5 μM
Method: Lane 1 of each of FIGS. 4A and 4B is a control in which the respective cells were treated with DMSO.

[2] = system: MDA-MB-231; experiment: MTT assay, MDA-MB-231 breast cancer cell line; type: cell-based, human; conditions: for IC50: Homo sapiens
Method: (§1) The breast cancer cell lines shown in Table 2 were screened to determine the localization of the aryl hydrocarbon receptor (AhR) in accordance with the techniques discussed above. MTT assays were conducted to measure cell death on various breast cancer cell lines.
(§2) The inhibitory concentration 50% were determined by MTT assay and following the NCI DTP in vitro testing procedures (http://dtp.nci.nih.gov/branches/btb/ivclsp.html). Three independent MTT in vitro tumor cell growth inhibition experiments were conducted and a mean IC50 value generated as shown in Table 4.

[3] = system: Hs578t; experiment: MTT assay, Hs578t breast cancer cell line; type: cell-based, human
Method: as §2

[4] = in mice; cited from earlier work
[5] = system: human tumor xenograft MDA-MB-231; experiment: MDA-MB-231 subcutaneous xenograft in nude mice
[6] = system: MCF-7 TAM1; experiment: MTT assay, MCF-7 TAM1 cell line; type: cell-based, human; conditions: for IC50: Homo sapiens, MCF7:TAM1
Method: as §1, §2

[7] = system: T47D; experiment: MTT assay, T47D breast cancer cell line; type: cell-based, human; conditions: for IC50: Homo sapiens
Method: as §1, §2

[8] = system: MDA-MB-468; experiment: MTT assay, MDA-MB-468 breast cancer cell line; type: cell-based; conditions: Homo sapiens; MDA-MB-468, mean of three independent MTT experiments; read-out: AF IC50
Method: as §2

[9] = system: HCC1937; experiment: MTT assay, HCC1937 breast cancer cell line; type: cell-based; conditions: Homo sapiens
Text: (§3) AhR localization correlates with cytotoxic activity of AFP464, as discussed above. […] The growth curves for all three cell lines resulting from 5 day continuous exposure of the cells to AFP464 in 96-well plates and the detection of cell growth by conversion of methyltetrazolium into formazan by viable cells (MTT assay) are shown. All cell lines in FIG. 3 have defects in the BRCA tumor suppressor genes responsible for very aggressive forms of hereditary breast and ovarian cancer. MX-1 have BRCA1 deletions and BRCA2 mutations, HCC1937 are BRCA1 mutant and completely defective, IGROV1 are defective for BRCA2 (±).
as §2

[10] = system: BT 20; experiment: MTT assay, BT 20 breast cancer cell line; type: cell-based; conditions: Homo sapiens; BT 20, mean of three independent MTT experiments; read-out: AF IC50
Method: as §2

[11] = system: HCC1937, BT 20, MDA-MB-468, and SKBR3 ER-negative tumor cells; experiment: MTT assay, sensitive ER-negative cell lines (summary); type: cell-based; conditions: Homo sapiens; range over sensitive ER-negative cell lines; read-out: AF IC50 concentrations
Method: as §2
(§4) The SKBR3, T47D, MCF-7, MCF-7 Tam1, and MCF-7 Her2-18 cell lines are all of a luminal type gene cluster. […] Based on previous NCI cell line screen results discussed above, ER-negative tumors were thought to be resistant to aminoflavone. […] Thus, the gene profile relating to ER status alone may not predict the sensitivity of the tumor to treatment with AF. AFP464 is not only effective in ER-positive breast cancer cells, which are always of luminal type histologies, but are also effective in the basal A subtype of ER-negative breast cancers.

[12] = system: ER-negative, or “triple-negative,” or basal B breast cancer cell lines; experiment: Sensitivity to aminoflavone after HDAC inhibitor pre-treatment; type: cell-based; conditions: Homo sapiens
[13] = system: MCF-7 HER2-18; experiment: MTT assay, MCF-7 HER2-18 cell line; type: cell-based, human; conditions: for IC50: Homo sapiens
Method: as §1, §2

[14] = system: SKBR3, T47D, MCF-7, MCF-7 Tam1, and MCF-7 Her2-18 cell lines; experiment: MTT assay, luminal type cell lines (summary); type: cell-based; conditions: Homo sapiens; range over luminal type cell lines; read-out: AF IC50 concentrations
Method: as §2, §4

[15] = system: MCF10A; experiment: MTT assay, MCF10A normal breast cell line; type: cell-based, human; conditions: for IC50: Homo sapiens, MCF-10A
Method: as §1, §2

[16] = system: SKBR3; experiment: MTT assay, SKBR3 breast cancer cell line; type: cell-based; conditions: Homo sapiens, SK-BR-3; SKBR3, mean of three independent MTT experiments; read-out: AF IC50
Method: as §2

[17] = system: MCF-7; experiment: MTT assay, MCF-7 breast cancer cell line; type: cell-based, human; conditions: for IC50: Homo sapiens, MCF7
Method: as §1, §2

[18] = system: A2780; experiment: Cytotoxicity, A2780 ovarian cancer cell line; type: cell-based; conditions: Homo sapiens
Text: (§5) Similarly, the ovarian cancer cell lines shown in Table 3 were screened to determine the localization of the Aryl hydrocarbon receptor (AhR). As shown below, and further illustrated in FIGS. 2 and 3, all cell lines where the AhR is localized predominantly in the cytoplasm (e.g. OVCAR-3 and IGROV-1) were more sensitive to treatment with AFP464 than tumor cells where the AhR is localized predominantly in the nucleus (e.g., OVCAR-8).

[19] = system: CYP1B1; experiment: Real time PCR of CYP1B1 expression, MDA-MB-231
[20] = system: MX-1; experiment: MTT assay, MX-1 triple negative breast cancer cell line; type: cell-based; conditions: Homo sapiens, MX1, 120 h, MX-1, 5 day continuous exposure
Text: as §3

[21] = system: γ-H2AX foci in MCF-7 TAM1; experiment: Immunofluorescence of phosphorylated γ-H2AX, MCF-7 TAM1; type: cell-based, human
Text: (§6) The phosphorylated γ-H2AX is an indicator of a DNA-damage response in cells.

[22] = system: γ-H2AX foci in MDA-MB-231; experiment: Immunofluorescence of phosphorylated γ-H2AX, MDA-MB-231; type: cell-based, human
Text: as §6

[23] = system: γ-H2AX foci in MCF-7 HER2-18; experiment: Immunofluorescence of phosphorylated γ-H2AX, MCF-7 HER2-18; type: cell-based, human
Text: as §6

[24] = system: γ-H2AX foci in MCF10a; experiment: Immunofluorescence of phosphorylated γ-H2AX, MCF10a; type: cell-based, human
Text: as §6

[25] = system: ADDP; experiment: Cytotoxicity, ADDP ovarian cancer cell line; type: cell-based; conditions: Homo sapiens
Text: as §5

[26] = system: ER-positive cell lines; conditions: NCI 60 screen, read-out: sensitivity (order of magnitude); cited from earlier work
[27] = system: IGROV-1; experiment: Cytotoxicity (MTT), IGROV-1 ovarian cancer cell line; type: cell-based; conditions: Homo sapiens
Text: as §5, §3

[28] = system: γ-H2AX foci in T47D; experiment: Immunofluorescence of phosphorylated γ-H2AX, T47D; type: cell-based, human
Text: as §6

[29] = Maximum tolerated dose; conditions: mouse, in vivo, iv; intravenously
Method: Next, the treatment and data evaluation will be discussed. […] The maximum tolerated dose (MTD) for AFP464 was determined prior to initiation of the experiment as 75 mg/kg/d intravenously. […]. […] AFP464 was given on days 1, 3, 5, 15, 17, and 19.

[30] = system: CYP1A1; experiment: Real time PCR of CYP1A1 expression, MDA-MB-231
[31] = system: AG6000; experiment: Cytotoxicity, AG6000 ovarian cancer cell line; type: cell-based; conditions: Homo sapiens
Text: as §5

[32] = system: γ-H2AX foci in MCF-7; experiment: Immunofluorescence of phosphorylated γ-H2AX, MCF-7; type: cell-based, human
Text: as §6

[33] = system: OVCAR-8; experiment: Cytotoxicity, OVCAR-8 ovarian cancer cell line; type: cell-based; conditions: Homo sapiens
Text: as §5

[34] = system: OVCAR-3; experiment: Cytotoxicity, OVCAR-3 ovarian cancer cell line; type: cell-based; conditions: Homo sapiens
Text: as §5

[35] = mean of three independent MTT experiments, read-out: AF IC50
[36] = MDA-MB-231, SAHA for 48 hours followed by AFP464 for 6 hours
[37] = MDA-MB-231, SAHA for 48 hours followed by AFP464 for 24 hours

Structure (SMILES): O=C(CCCCCCC(=O)Nc1ccccc1)NO [SAHA, suberoylanilide hydroxamic acid, reference compound]
- ERα induction [1]: increases
- IC100 ([2]; SAHA in MDA-MB-231): 13.5 µM
- IC100 ([3]; SAHA in Hs578T): 100 µM
- MTD [4]: 175 mg/kg/day
- Opt. Test/Control % [d] ([5]; Vorinostat 50 mg/kg p.o. Day −3 to −1, 12-14, optimum d26): 71 [d26] %

Structure (SMILES): Cc1c(F)c(N)c2c(=O)cc(-c3ccc(N)c(F)c3)oc2c1F [AF, aminoflavone]
- IC50 ([6]; MCF-7 Tam1, mean of three independent MTT experiments, read-out: AF IC50): 25 nM
- IC50 [7, 35]: 14 nM
- IC50 [8]: 12 nM
- IC50 ([9]; HCC1937, mean of three independent MTT experiments, read-out: AF IC50): 10 nM
- IC50 ([2]; MDA-MB-231, mean of three independent MTT experiments, read-out: AF IC50): 25000 nM
- IC50 [10]: 20 nM
- IC50 [11]: 10 to 20 nM
- IC50 ([3]; Homo sapiens, Hs-578T, Hs578t, mean of three independent MTT experiments, read-out: AF IC50): 20000 nM
- IC50 [12]: ~1000 nM
- IC50 ([13]; MCF-7 Her2-18, mean of three independent MTT experiments, read-out: AF IC50): 20 nM
- IC50 [14]: 16 to 20 nM
- IC50 [15, 35]: 3000 nM
- IC50 [16]: 16 nM
- IC50 ([17]; MCF-7, mean of three independent MTT experiments, read-out: AF IC50): 16 nM

Structure (SMILES): Cc1c(F)c(N)c2c(=O)cc(-c3ccc(NC(=O)[C@@H](N)CCCCN)c(F)c3)oc2c1F [AFP464]
- IC50 [18]: 5000 nM
- expression of RNA for CYP1B1 [19, 36]: increased expression
- expression of RNA for CYP1B1 [19, 37]: little expression
- IC50 [20]: 30000 nM
- IC50 ([6]; MCF-7 TAM1, MTT, read-out: IC50): 25 nM
- IC100 ([6]; MCF-7 TAM1, MTT): 200 nM
- IC50 ([7]; MTT, read-out: IC50): 14 nM
- IC100 ([7]; MTT): 20 nM
- γ-H2AX Foci [21]: yes
- IC50 ([9]; 120 h, HCC1937, 5 day continuous exposure, MTT, read-out: IC50): 10 to 200 nM
- γ-H2AX Foci [22]: no
- γ-H2AX Foci [23]: yes
- γ-H2AX Foci [24]: no
- IC50 [25]: 2500 nM
- IC50 ([2]; MDA-MB-231, MTT, read-out: IC50): 25000 nM
- IC100 ([2]; MDA-MB-231, MTT): >100 µM
- IC50 [26]: ~10 nM
- IC50 ([27]; IGROV-1): 420 nM
- IC50 ([27]; IGROV-1, 120 h, IGROV1, 5 day continuous exposure, MTT): 10 to 200 nM
- γ-H2AX Foci [28]: yes
- MTD [29]: 75 mg/kg/day
- expression of RNA for CYP1A1 [30, 36]: increased expression
- expression of RNA for CYP1A1 [30, 37]: little expression
- IC50 ([13]; MCF-7 HER2-18, MTT, read-out: IC50): 20 nM
- IC100 ([13]; MCF-7 HER2-18, MTT): 375 nM
- IC50 [31]: > 10000 nM
- γ-H2AX Foci [32]: yes
- IC50 ([15]; MTT, read-out: IC50): 3000 nM
- IC100 ([15]; MTT): 9 µM
- IC50 ([17]; MCF-7, MTT, read-out: IC50): 16 nM
- IC100 ([17]; MCF-7, MTT): 300 nM
- % Growth Inhibition [d29] ([5]; AFP464 35 mg/kg i.v. Day 1, 3, 5, 15, 17, 19): 23%
- Opt. Test/Control % [d] ([5]; AFP464 35 mg/kg i.v. Day 1, 3, 5, 15, 17, 19, optimum d26): 77 [d26] %
- % Growth Inhibition [d29] ([5]; AFP464 70 mg/kg i.v. Day 1, 3, 5, 15): 15%
- Opt. Test/Control % [d] ([5]; AFP464 70 mg/kg i.v. Day 1, 3, 5, 15, optimum d28): 85 [d28] %
- IC50 [33]: 13000 nM
- IC50 [34]: 252 nM

Reference: US20100016421A1, “METHODS FOR DETERMINING SENSITIVITY TO AMINOFLAVONES” (priority 2008, published 2010)
